Source: ChEMBL document CHEMBL1140845, “Synthesis of deoxygenated alpha(1-->5)-linked arabinofuranose disaccharides as substrates and inhibitors of arabinosyltransferases of Mycobacterium tuberculosis” (Bioorg Med Chem, 2009)
The source made the active and inactive calls. The rule behind the calls is not given here.

tested on: Mycobacterium tuberculosis; assay: Antimycobacterial activity against multidrug resistant Mycobacterium tuberculosis H37Ra at 12.8 to 128 ug/mL; assay type: functional, organism-based

SMILES	Activity
CCCCCCCCO[C@H]1O[C@H](CO[C@H]2O[C@H](CO)[C@@H](O)[C@@H]2O)C[C@@H]1O	Active
CCCCCCCCO[C@H]1O[C@H](CO[C@H]2O[C@H](CO)[C@@H](O)[C@@H]2O)[C@@H](O)[C@@H]1F	Active
CCCCCCCCO[C@@H]1C[C@H](O)[C@@H](CO[C@H]2O[C@H](CO)[C@@H](O)[C@@H]2O)O1	Active
